Active and inactive are the calls of the source.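 How the source made its calls: active means compounds giving half or more protection of infected cells from virus-caused growth loss, again on retest; inactive means the rest.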
System: CEM cells HIV-1 protection, formazan growth assay
Experiment: NCI AIDS Antiviral Assay
Conditions: for IC50: measured here: growth of uninfected CEM cells
In short: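 Screen of anti-HIV-1 activity in human CEM cells using a formazan-based growth measurement at five drug concentrations. Hits with 50% or greater protection were repeated, and confirmation required reproducible complete protection.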

Structure (SMILES) | EC50 [µM] | IC50 [µM] | outcome
COc1ccc(C2c3cc(OC)c(OC)cc3C(Cc3ccc([N+](=O)[O-])cc3)C2c2ccc([N+](=O)[O-])cc2)cc1OC (configuration not stated) | > 2.51 | > 2.51 | 
COc1ccc(/C=C2\N=C(c3ccccc3)N(N=C3NC(=O)CC(=O)N3)C2=O)cc1 | > 200 | > 200 | 
O=C(Cn1cc(I)c(C(=O)NCC(O)CO)n1)NCC(O)CO (configuration not stated) | > 562 | > 562 | 
CC(C)C12OC1CC13OC1C1OC1C1OC132 (configuration not stated) | > 200 | > 200 | 
Cc1ccc(SSc2ccc(C)cc2)cc1 | > 20 | 3.55 | inactive
CCCCCCOC(=O)c1ccc(NC(=O)CN(CC)CC)cc1 | > 200 | 37.2 | 
CC1(C)CC2=C(CC3C4C=C5CC(C)(C)OC(=O)C5(C4)C23)C(=O)O1 (configuration not stated) | > 87.1 | > 87.1 | 
Cc1noc2cccc(O)c12 |  |  | inactive
O=C1CCC2=NCc3c(ccc4ccccc34)N12 | > 398 | 347 | 
C[N+]1(C2=C([O-])C(F)(F)C2=O)CCOCC1 | > 200 | > 200 | 
CC(=O)[O-].[Mn+3].[O-]c1ccc(Cl)cc1C=NCCN=Cc1cc(Cl)ccc1[O-] | > 240 | 12 | 
S=c1cn[nH]c2ccc(S)cc12 | > 182 | 102 | 
CCOC(=O)c1cc(N/N=C2/CCCNC2=O)c[nH]1 | > 200 | 41.7 | 
Nc1nc(N)c(N=O)c(Nc2ccc(Br)c(Br)c2)n1 |  |  | inactive
COC(=O)C1(NC(=O)C(CC(=O)OCc2ccccc2)NC(=O)OCc2ccccc2)CCCCCC1 (configuration not stated) | > 200 | 107 | 
COc1nc(=O)cc(N)n1C1OC(CO)C(O)C1O (configuration not stated) | > 912 | > 912 | 
COC(=O)c1cc(C)ccc1/C=C1\Cc2c(C)cc(C)cc2C1=O |  |  | inactive
CCOC(=O)CCC(NC(=O)c1ccc(Nc2cnc3ccc(C(F)(F)F)cc3n2)cc1)C(=O)OCC (configuration not stated) | > 200 | 18.6 | 
Cc1ccc(NC=O)cc1F |  |  | inactive
NCC1OC(OC2C(CO)OC(OC3C(O)C(N)CC(N)C3OC3OC(CN)C(O)C(O)C3N)C2O)C(N)C(O)C1O (configuration not stated) (tested in a mixture with another compound) | > 135 | 9.33 | 
CN(/N=C\c1ccnc2ccccc12)c1ccccc1 |  |  | inactive
COc1ccc(-c2c3c(nc4[nH]c(=S)[nH]c(=S)c24)CCCC3)cc1OC | > 200 | 49 | 
Cc1ccc(-c2c(N)nc(NC#N)nc2CCC(=O)Nc2ccccc2[N+](=O)[O-])cc1 |  |  | inactive

Structure (SMILES) | EC50 [µM] | IC50 [µM] | outcome
O=C(Nc1ccccc1-c1ccccc1)c1ccccc1 | > 200 | 91.2 | 
COc1ccc(-c2sc(/N=C/c3ccc(-c4ccccc4)cc3)c(C#N)c2C)cc1OC | > 200 | 30.2 | 
CCCCCCCCCCCCSC(=S)c1c(C)[nH]n(CCCCCCCCCCCC)c1=O | > 51.3 | > 51.3 | 
Cc1ccccc1SC(/C=C/NNC1=NC(c2ccccc2)C(c2ccccc2)=NN1)c1ccccc1 (configuration not stated) | > 20 | > 20 | 
CNC(=O)N(CCCCC(NC(C)=O)C(=O)NCc1ccccc1)Cc1ccccc1 (configuration not stated) | > 589 | > 589 | 
NC(=O)NCCSC1(SCCNC(N)=O)CCCCC1 | > 200 | > 200 | 
CC(=O)ON(OC(C)=O)c1ccc(C)cc1 | > 200 | > 200 | 
CSc1nnnc2ccccc12 | > 200 | 145 | 
CSc1nc(NC2OC(COC(C)=O)C(OC(C)=O)C(OC(C)=O)C2OC(C)=O)c(N=C(C)C(C)=O)c(=O)[nH]1 (configuration not stated) |  |  | inactive
Cc1ccc(Nc2nc(NNC(=O)Cc3ccccc3)nc(NNC(=O)c3ccncc3)n2)cc1 | > 50.1 | > 50.1 | 
CCN(CC)C(=O)COc1cc2c(O)c3c(O)c(C)c4c(c13)C(=O)C(C)(O/C=C/C(OC)C(C)C(OC(C)=O)C(C)C(O)C(C)C(O)C(C)/C=C/C=C(\C)C(=O)N2)O4 (configuration not stated) | > 200 | 74.1 | 
CSCCC(NC(=O)Cc1ccc(C(=O)c2ccccc2)cc1)C(=O)O (configuration not stated) | > 200 | > 200 | 
C[n+]1c2ccccc2n2c3ccccc3c(NCCCN3CCOCC3)c(C#N)c21 | > 20 | 0.676 | 
COc1ccc(C(=O)C(C(=O)CCC(=O)Nc2cccc(Cl)c2)c2ccc(OC)cc2)cc1 (configuration not stated) | > 15.5 | > 15.5 | 
CC(CN(C)C)OC(=O)c1cc2ccccc2n1-c1ccccc1 (configuration not stated) | > 200 | 91.2 | 
CN(/N=C\c1ccnc2ccccc12)c1ccc([N+](=O)[O-])cc1 |  |  | inactive
O=C1c2cccc3cc([N+](=O)[O-])cc(c23)C(=O)N1Cc1cccnc1 |  |  | inactive
O=C1CC(C2(c3ccc4c(c3)OCO4)SCCCS2)CO1 (configuration not stated) | > 155 | > 155 | 
COC(O)C(=O)c1c2c(cc3c1CCC3)CCCC2 (configuration not stated) | > 200 | 6.17 | 
COc1ccc2c(c1)OCC1Cc3cccc(OC)c3OC21 (configuration not stated) | > 200 | 44.7 | 
C[C@H]1CC(=O)C2=CCCC3(SCCCS3)[C@@H]2[C@H]1CO |  |  | inactive
O=[N+]([O-])c1cc(C=NC23CC4CC(CC(C4)C2)C3)ccc1Cl | > 200 | 3.72 | 
O=c1ccc2cc(Cl)ccc2o1 | > 75.9 | > 75.9 | 

Structure (SMILES) | EC50 [µM] | IC50 [µM] | outcome
N#CC(C(=N/NC(N)=S)/C(=N/NC(N)=S)C(C#N)c1ccc(Cl)cc1)c1ccc(Cl)cc1 (configuration not stated) | > 257 | 186 | 
COc1c(OC)c(C=O)c2c(OC)c(-c3c(C)cc4c(C(C)C)c(OC)c(OC)c(C=O)c4c3OC)c(C)cc2c1C(C)C |  |  | inactive
CCC[CH2][Sn]([CH2]CCC)([S]C1=NCCS1)[S]C1=NCCS1 | > 39.8 | 0.759 | 
O=C(/N=C/c1c(O)c2ccccc2oc1=O)Nc1ccccc1 | > 17 | > 17 | 
O=C1c2ccccc2-n2nnnc2C2CSCN12 (configuration not stated) | > 200 | > 200 | 
COc1ccc(C(=CCC(C)C2CCC3[C@@H]4C(OC(C)=O)CC5CC(OC(C)=O)CC[C@]5(C)C4CC(OC(C)=O)[C@]23C)c2ccc(OC)cc2)cc1 (some centres not stated) | > 200 | 95.5 | 
O=CC12CCCN1CCC2 | > 200 | > 200 | 
COc1ccc2nc3cc(Cl)ccc3c(NCCCN(C)CCCNc3ccc4ncn5c6ccccc6c(=O)c3c45)c2c1 | > 0.251 | 0.166 | 
CN(C)CCN1CCc2c([nH]c3ccccc23)C1c1cccnc1 (configuration not stated) | > 6.31 | > 6.31 | 
CC(=O)NC(C)(C)C1CCC(C)=C(c2ccccc2)C1 (configuration not stated) | > 95.5 | 47.9 | 
[O-]c1on[n+]2c1CCCC2 |  |  | inactive
Cc1ccc(NC(=O)C(=O)Cc2nc3ccccc3o2)c(C)c1 | > 12.3 | > 12.3 | 
C=C(Br)CNC(=O)NCCN1CCOCC1 | > 200 | > 200 | 
N#CC(C(=O)/C(=N\NC(N)=O)C(C#N)c1ccc(Cl)cc1)c1ccc(Cl)cc1 (configuration not stated) | > 603 | 398 | 
CC(=O)/C(=C/n1c(=S)[nH]c2ccccc21)C(=O)Nc1ccc([N+](=O)[O-])cc1 | > 200 | 105 | 
N#Cc1ccc(C(=O)/C=C/c2ccc(O)c(O)c2)cc1 | > 200 | 10.2 | 
COc1c(O)c2c(=O)cc(OC)c3c4c(OC)cc(=O)c5c(O)c(OC)c6c(c(c1CC(C)(O)C6C(C)=O)c23)c54 (configuration not stated) | > 13.2 | 1.58 | 
CCN(CC)C1=C(N(CC)CC)C(N(CC)CC)=C(N(CC)CC)C1=O.[C-]#[O+].[C-]#[O+].[C-]#[O+].[Fe] | > 2.88 | > 2.88 | 
Cc1cccc2c1CC(Cc1ccccc1C(=O)O)C2=O (configuration not stated) | > 200 | > 200 | 
O=c1ccc2ccc(O)c3c4c(=O)ccc5ccc(O)c(c1c23)c54 |  |  | inactive
N#Cc1c2c(c(N=[N+]=[N-])n3c1nc1ccccc13)CCCC2 | > 4.68 | > 4.68 | 
S=c1[nH]c2ccccc2[nH]c1=S | > 200 | 26.3 | 
OCCN1CCN(CCCN2c3cc(Cl)ccc3Sc3ccsc32)CC1 | > 316 | 15.5 | 

Structure (SMILES) | EC50 [µM] | IC50 [µM] | outcome
O=C1CC(=O)NC(=NN2C(=O)/C(=C/c3ccccc3)N=C2c2ccccc2)N1 | > 200 | > 200 | 
C/C(=N\NC(=O)CC(=O)Nc1ccccc1Cl)c1cc2cc(N=Nc3ccccc3Cl)ccc2oc1=O | > 18.6 | > 18.6 | 
O=C1c2ccccc2C(=O)c2c(S)cccc21 | 148 | > 200 | 
CC(C)(C)C1=CC(=O)C(Cl)(C(C)(C)C)C(Cl)C1=O (configuration not stated) | > 20 | 1.15 | 
COc1cc2cnc3c4cc(OS(=O)(=O)c5ccccc5)ccc4ccc3c2cc1OC | > 14.5 | > 14.5 | 
CC(C)=CCC[C@@H](C)/C=C/C=C(\C)C(=O)CC[C@@H]1CC[N@+]2(C)CCCC[C@H]12 | > 200 | 46.8 | 
COc1nc(C)nc2sc3c(c12)CCCC3 | > 100 | > 100 | 
COC(=O)/C(C#N)=C1\N=NNN1CCCN1CCOCC1 |  |  | inactive
CC(=O)N(C)c1ccc2ncccc2c1[N+](=O)[O-] | > 1020 | 562 | 
CCOC(=O)/C=C/c1ccc(Br)cc1 | > 28.2 | > 28.2 | 
Clc1nc2cc3c(cc2n2cccc12)oc1ccccc13 | > 200 | > 200 | 
O=C(Nc1ccc(Cl)c(Cl)c1)N1c2ccccc2Sc2ccccc21 |  |  | inactive
CC(=O)c1c(O)cc2c(c1O)C1CC(C)(CCC1=C(C)C)O2 (configuration not stated) | > 186 | 26.3 | 
N#C/C(C(=S)NCc1ccccc1)=C(/N)N1CCCC1 | > 200 | 148 | 
COC(=O)/C(C#N)=C/NC(=S)Nc1ccccc1 | > 200 | > 200 | 
Cc1ccc(S(=O)(=O)SC/C=C\CSS(=O)(=O)c2ccc(C)cc2)cc1 |  |  | inactive
CC(=O)NS(=O)(=O)c1ccc(NC(=O)c2ccccc2SC(C)=O)cc1 | 17 | 112 | 
Cc1cc2nc3c(C(OC4OC(CO)C(O)C(O)C4O)C(O)CO)nn(-c4ccccc4)c3nc2cc1C (configuration not stated) |  |  | inactive
COC(=O)c1c(C)cccc1C1CN=NC12Cc1c(C)cccc1C2=O (configuration not stated) | 36.3 | 72.4 | 
O=[N+]([O-])c1ccc2nc(-c3ccccc3[N+](=O)[O-])[nH]c2c1 | > 126 | 24.5 | 
